{"source": "patent US8357659B2", "about": "“Method of treating pain or itching with APETx2 peptide toxin” (priority 2008, dated 2013)", "key": {"ASIC1a": {"molecular_target": "T1, ASIC1a (Rattus norvegicus, UniProt P55926)", "T1 sequence (P55926 1-526)": "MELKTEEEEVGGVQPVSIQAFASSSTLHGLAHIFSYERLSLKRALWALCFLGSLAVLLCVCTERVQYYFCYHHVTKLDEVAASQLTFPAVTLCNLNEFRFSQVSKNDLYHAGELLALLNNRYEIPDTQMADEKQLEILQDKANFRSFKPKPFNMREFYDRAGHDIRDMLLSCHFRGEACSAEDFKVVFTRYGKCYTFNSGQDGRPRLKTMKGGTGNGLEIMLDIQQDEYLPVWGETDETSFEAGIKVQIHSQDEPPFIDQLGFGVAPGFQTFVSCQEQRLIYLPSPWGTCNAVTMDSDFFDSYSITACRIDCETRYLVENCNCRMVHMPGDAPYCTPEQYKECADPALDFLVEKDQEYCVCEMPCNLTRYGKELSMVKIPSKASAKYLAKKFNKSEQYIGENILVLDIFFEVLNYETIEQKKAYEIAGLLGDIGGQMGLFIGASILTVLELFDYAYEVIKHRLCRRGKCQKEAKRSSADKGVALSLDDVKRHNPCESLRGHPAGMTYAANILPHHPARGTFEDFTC", "conditions": "cited from earlier work"}, "heteromer ASIC2b+3": {"molecular_target": "T2, heteromer ASIC2b+3 (Rattus norvegicus, UniProt O35240+Q62962)", "T2 sequence (Q62962 1-563 isoform Q62962-2)": "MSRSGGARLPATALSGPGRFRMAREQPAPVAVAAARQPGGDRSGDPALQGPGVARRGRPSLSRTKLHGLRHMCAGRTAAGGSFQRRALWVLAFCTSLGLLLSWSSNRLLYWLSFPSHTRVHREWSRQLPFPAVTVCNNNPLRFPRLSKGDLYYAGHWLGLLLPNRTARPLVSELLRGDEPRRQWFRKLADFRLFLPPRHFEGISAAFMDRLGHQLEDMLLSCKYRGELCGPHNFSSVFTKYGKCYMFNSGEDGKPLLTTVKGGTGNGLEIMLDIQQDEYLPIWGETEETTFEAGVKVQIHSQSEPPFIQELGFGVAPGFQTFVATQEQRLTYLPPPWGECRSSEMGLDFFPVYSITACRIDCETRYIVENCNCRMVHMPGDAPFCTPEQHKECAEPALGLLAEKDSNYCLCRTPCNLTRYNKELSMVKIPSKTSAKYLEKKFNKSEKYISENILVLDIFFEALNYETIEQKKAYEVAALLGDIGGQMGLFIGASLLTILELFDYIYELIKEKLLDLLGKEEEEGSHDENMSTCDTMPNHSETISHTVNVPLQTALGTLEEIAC", "T2 sequence (O35240 1-533)": "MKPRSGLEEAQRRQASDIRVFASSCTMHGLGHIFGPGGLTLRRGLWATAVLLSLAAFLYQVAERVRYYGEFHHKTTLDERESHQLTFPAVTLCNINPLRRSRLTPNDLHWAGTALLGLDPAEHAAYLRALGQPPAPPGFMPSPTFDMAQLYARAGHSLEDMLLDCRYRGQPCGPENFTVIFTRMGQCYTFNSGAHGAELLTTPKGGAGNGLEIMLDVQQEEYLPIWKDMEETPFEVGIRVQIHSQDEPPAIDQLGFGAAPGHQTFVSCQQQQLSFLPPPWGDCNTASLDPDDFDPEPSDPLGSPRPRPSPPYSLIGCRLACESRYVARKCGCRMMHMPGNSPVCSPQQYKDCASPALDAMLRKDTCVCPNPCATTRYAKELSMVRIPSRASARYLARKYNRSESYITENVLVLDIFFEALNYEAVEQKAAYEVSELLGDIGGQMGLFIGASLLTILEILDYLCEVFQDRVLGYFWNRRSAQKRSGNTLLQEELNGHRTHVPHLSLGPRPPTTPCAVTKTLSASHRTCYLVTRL", "conditions": "cited from earlier work"}, "[1]": {"test_system": "cutaneous pain induced by moderate acidification", "experiment": "Nociceptive behaviour in rats after subcutaneous injection of moderately acidic solutions", "type": "in vivo, rat", "conditions": "FIG. 5A", "description": "Adult (7-8 weeks' old) male Wistar rats (Charles River, France) were placed in plastic cages with a nyctohemeral period of 12 h (with light between 8 a.m. and 8 p.m.) and with free access to food and water. The rats were left to acclimatize for at least one week before the experiments. For the behavioural experiments, the rats were placed in a transparent observation chamber where they were acclimatized for 20-30 minutes. They were subsequently immobilised while 20 μl of saline solution (0.9% or 2% of NaCl+20 mM of HEPES, […] or 60 nM of PcTx1 toxin), was administered subcutaneously to the dorsal side of the right hind paw using a 30G needle connected to a 100 μl Hamilton syringe. The nociceptive behaviour (i.e. the number of hind leg quiverings) was recorded over a 5-minute period, starting immediately after the injection ([ref. 59])."}, "ASIC2a": {"molecular_target": "T3, ASIC2a (Rattus norvegicus, UniProt Q62962)", "T3 sequence (Q62962 1-512)": "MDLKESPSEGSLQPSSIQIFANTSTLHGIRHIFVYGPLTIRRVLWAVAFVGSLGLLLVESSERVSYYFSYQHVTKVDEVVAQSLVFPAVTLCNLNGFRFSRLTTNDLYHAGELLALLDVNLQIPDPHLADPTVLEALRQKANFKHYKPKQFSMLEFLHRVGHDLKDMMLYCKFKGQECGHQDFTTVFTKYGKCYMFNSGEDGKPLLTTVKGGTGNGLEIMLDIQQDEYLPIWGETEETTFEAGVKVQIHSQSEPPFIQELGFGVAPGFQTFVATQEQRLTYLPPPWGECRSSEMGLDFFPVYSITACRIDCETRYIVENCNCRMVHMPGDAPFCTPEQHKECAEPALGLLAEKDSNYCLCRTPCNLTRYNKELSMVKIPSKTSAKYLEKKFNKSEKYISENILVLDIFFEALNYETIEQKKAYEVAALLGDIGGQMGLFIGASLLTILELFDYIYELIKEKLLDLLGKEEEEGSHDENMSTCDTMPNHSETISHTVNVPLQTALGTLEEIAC", "conditions": "cited from earlier work"}}}
{"substance": "peptide of 42 amino acids (SEQ ID NO: 3), three disulphide bonds, from sea anemone Anthopleura elegantissima; blocks ASIC3 [APETx2]", "values": [{"measurement": "effect on ASIC1a isoform", "setting": "ASIC1a", "value": "does not have any effect"}, {"measurement": "effect on the current of the heteromer ASIC2b+3", "setting": "heteromer ASIC2b+3", "value": "inhibits"}, {"measurement": "behaviour in response to acid pain with inflammatory signals", "setting": "[1]; pH 6.9 + 2% NaCl + AA, 10 μM APETx2 or 60 nM PcTx1 in injected solution", "value": "markedly reduced"}, {"measurement": "pain behaviour after subcutaneous injection of acidic solution", "setting": "[1]; pH 6.9, 10 μM APETx2 in injected solution", "value": "suppressed"}, {"measurement": "effect on ASIC2a isoform", "setting": "ASIC2a", "value": "does not have any effect"}]}
